This test relates to Mycobacterium tuberculosis H37Rv growth inhibition, no glycerol. In words: Confirmatory growth inhibition assay, Mycobacterium tuberculosis H37Rv, absence of glycerol (AID 449764).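 As to all read-outs here: growth read after 7 days of incubation.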 To be noted: for IC90: measured here: IC90 growth inhibition.

The structures appear in SMILES notation. Where only a bound is given, the exact number is not on record here.

This note sets out measurements from PubChem BioAssay AID449764 (Southern Research Specialized Biocontainment Screening …, 2010).

As to `CN(CCCCCCCCCCN(C)C(=O)Oc1cccc([N+](C)(C)C)c1)C(=O)Oc1cccc([N+](C)(C)C)c1`, the IC50 is 2.17 µM and the IC90 was 3.44 µM.

With `CCC(C)NC(=O)c1c(N)n(/N=C/c2ccccn2)c2nc3ccccc3nc12` (centres undefined), the IC50 was 13.7 µM and the IC90 worked out at 22.4 µM.

Regarding `CN(c1ccccc1)S(=O)(=O)c1cccc(C(=O)NCc2ccccc2CN2CCCC2)c1`, the IC50 is 63.2 µM and the IC90 was 77.9 µM.

Consider `Cc1ccc(/C=C2\C(=O)Nc3ccccc32)o1`, for which the IC50 was 4.9 µM and the IC90 worked out at 6.56 µM.

On to `Cc1cc(NC(=O)c2sccc2C)n(-c2nc3ccccc3[nH]2)n1`, for which the IC50 was 10.2 µM and the IC90 was greater than 100 µM.

Consider `N#Cc1ccc(CN2CCN(CC(=O)NCCc3ccc(Cl)cc3Cl)CC2)cc1`, for which the IC50 was 44.9 µM and the IC90 turned out to be 51.2 µM.

As to `Cc1ccc(OC/C(O)=C(\C#N)c2nc3ccccc3s2)cc1`, the IC50 is 25.7 µM and the IC90 was 41.1 µM.

In the case of `C[Se]C[C@@H](N)C(=O)O`, the IC50 was 89.4 µM and the IC90 worked out at 95.7 µM.

For `Cc1cccc(C(=O)OCC(=O)N2CCc3ccccc3C2)c1O`, the IC50 was 24.8 µM and the 90% effect concentration (IC90) was greater than 25 µM.

For `CCc1ccc2nc(N(CCCN(C)C)C(=O)c3ccc(S(=O)(=O)N4CCCc5ccccc54)cc3)sc2c1`, the IC50 was 35 µM and the IC90 was determined as 41 µM.

Consider `CCOc1cc(NC(=O)CCl)c(OCC)cc1NC(C)=O`, for which the IC50 was 0.95 µM and the IC90 is 51.8 µM.

Consider `CCOc1cc(-c2c(C#N)c(=O)[nH]c3c2c(C)nn3-c2ccc(F)cc2)ccc1O`, for which the IC50 was 4.87 µM and the IC90 stood at 8.73 µM.

Take `CCN1c2ccccc2N(C)C1(C)c1ccccc1` (centres undefined): the IC50 is 8.65 µM and the IC90 came to 10.5 µM.

As to `CCc1ccc(N=C2NC(=O)/C(=C/c3cc(OC)c(O)c(OC)c3)S2)cc1`, the IC50 is 41.1 µM and the 90% effect concentration (IC90) is greater than 100 µM.

For the compound `N=C1C(c2nc3ccccc3[nH]2)=C(O)CN1NC(=O)c1c[nH]c2ccccc12`, the IC50 was 26.7 µM and the IC90 is 40.1 µM.

Turning to `c1ccc(-c2nc(N3CCCC3)nc3ccccc23)cc1`, the IC50 is 47 µM and the IC90 turned out to be 53.5 µM.

With `CCCCN(C)CCNC(=O)c1ccc(Cn2c(=S)[nH]c3ccc(Br)cc3c2=O)cc1`, the IC50 is 18.9 µM and the IC90 was 27.9 µM.

With `CCOC(=O)c1ccccc1NC(=O)COc1coc(CN2CCc3ccccc32)cc1=O`, the IC50 is 27.1 µM and the IC90 worked out at 47.8 µM.

Take `COC(=O)c1ccc(C(=O)OC)c(NC(=O)CSc2cccc[n+]2[O-])c1`: the IC50 was 5.72 µM and the IC90 is 6.25 µM.

Consider `CCCC12CN3CC(CCC)(CN(C1)C3c1ccccn1)C2=O` (centres undefined), for which the IC50 is 9.71 µM and the IC90 was greater than 100 µM.

Turning to `Cc1ccc(O)c(C(=O)CC(=O)c2ccccc2Cl)c1`, the IC50 is 17.9 µM and the IC90 came out at 27.3 µM.

For the compound `O=C(/C=C/c1ccc(O)c([N+](=O)[O-])c1)c1ccc2ccccc2c1`, the IC50 was 24 µM and the IC90 is greater than 100 µM.

On to `COCC(=O)O[C@]1(CCN(C)CCCc2nc3ccccc3[nH]2)CCc2cc(F)ccc2[C@@H]1C(C)C`, for which the IC50 is 45.4 µM and the IC90 is 53.2 µM.

Take `NC(=S)NNc1ccc(Cl)c(Cl)c1`: the IC50 was 7.82 µM and the IC90 is 12.1 µM.

Consider `COc1ccccc1NC(=O)CN1CCN(CC(=O)Nc2ccc3c(c2)OCO3)CC1`, for which the IC50 was 39.2 µM and the IC90 is 60 µM.

For `C/C(=N\NC(=S)Nc1cccc(C)c1)c1cccc(N)c1`, the IC50 was 21.6 µM and the IC90 came out at 23.7 µM.

`Cc1ccc2c(c1)c(C1=c3ccccc3=NC1=O)c(O)n2C`: the IC50 is 2.95 µM and the IC90 amounted to 4.82 µM.

`O=C(CSc1nnc(-c2cccs2)o1)NCC1CN(Cc2ccccc2)CCO1` (centres undefined): the IC50 was 20.7 µM and the IC90 turned out to be 25.5 µM.

In the case of `Cc1nc2ccc(OC(=O)c3ccccc3)cc2s1`, the IC50 is 88.1 µM and the IC90 is greater than 100 µM.

Take `Nc1c(C(=O)O)cnc2c(-c3ccc(Cl)cc3)cnn12`: the IC50 is 64 µM and the IC90 was 99.8 µM.

With `NC(=O)N=Nc1c2[nH]c3ccccc3nc-2c2ccccc12`, the IC50 is 5.96 µM and the IC90 is 8.44 µM.

`CCCCOc1ccc(-c2nnn(C(C)C(=O)OCC)n2)cc1` (centres undefined): the IC50 was 2.8 µM and the IC90 was determined as 8.73 µM.

Regarding `CC(C)(C)c1ccc(C(=O)NC(=S)NNC(=O)COc2ccccc2)cc1`, the IC50 was 28.8 µM and the IC90 worked out at 42.9 µM.

As to `Oc1ccc(Nc2nc(-c3ccc4ccccc4c3)cs2)cc1`, the IC50 was 82.4 µM and the IC90 is greater than 100 µM.

For the compound `Cc1cc(/C=C2\SC(=Nc3ccc(F)cc3)NC2=O)c(C)n1-c1ccc(S(N)(=O)=O)cc1`, the IC50 is 22.7 µM and the IC90 came to 26.2 µM.

On to `COC(=O)c1cc(Sc2cccc(Cl)c2Cl)ccn1`, for which the IC50 was 29 µM and the IC90 worked out at 40.5 µM.

As to `COc1ccc(NC(=O)CN(C)CC(=O)Nc2sc3c(c2C(N)=O)CCC3)cc1`, the concentration for half-maximal inhibition (IC50) was 82.4 µM and the IC90 is greater than 100 µM.

On to `CCCCCCCNC1=CC(=O)CC(c2ccccc2)C1` (centres undefined), for which the IC50 was 39.7 µM and the IC90 is 61.3 µM.

In the case of `COc1ccc(-n2nc3c(c2NC(=O)CCl)CSC3)cc1`, the half-maximal inhibitory concentration (IC50) was 6.92 µM and the IC90 worked out at 12.5 µM.

With `Cc1ccc(NC(=O)COc2ccccc2CNC(C)(C)CC(C)(C)C)cc1`, the IC50 is 24.6 µM and the IC90 is 36.2 µM.

As for `CN1OC(COC(=O)c2ccc(Cl)cc2Cl)CC1c1ccccc1` (centres undefined), the IC50 is 7.6 µM and the IC90 amounted to 22.3 µM.

As to `O=C(N/N=C(\c1ccccc1)c1ccccn1)c1ccccc1Cl`, the IC50 is 12.1 µM and the IC90 was 15.5 µM.

Take `COC(=O)c1ccc(COC(=O)CCc2nc(-c3ccccc3)c(-c3ccccc3)o2)cc1`: the IC50 was 44.9 µM and the IC90 is greater than 100 µM.

In the case of `COc1ccc(C2CC(=O)c3cnc(Nc4cc(C)cc(C)c4)nc3C2)cc1` (centres undefined), the IC50 is 20.5 µM and the IC90 stood at 45.2 µM.

`CCOC(=O)COc1ccc(/C=C2\NC(=S)N(CC)C2=O)cc1`: the IC50 was 3.1 µM and the IC90 came out at 3.44 µM.

On to `CCOC(=O)CSc1nc(N)c(C(=O)Nc2ccc(N(C)C)cc2)s1`, for which the IC50 is 4.23 µM and the IC90 came out at 9.77 µM.

As to `CON(C)c1nc(C2CCCCC2)c2cc(C)ccc2n1`, the IC50 was 57.4 µM and the IC90 is 68.2 µM.

For `OCC(O)/C=N/Nc1nc(Nc2ccccc2)nc(Nc2ccccc2)n1` (centres undefined), the IC50 was 14 µM and the IC90 is 24.1 µM.

On to `CCCc1cnc(NCCNCC(O)COc2ccc(Cl)c(Cl)c2)nc1` (centres undefined), for which the IC50 was 24.2 µM and the IC90 is 27.7 µM.

On to `C[n+]1c(-c2ccccc2)c2cc(N)ccc2c2ccc(N)cc21`, for which the IC50 is 16.4 µM and the IC90 was found to be 20.9 µM.

With `CCCCCCC[N+](CC)(CC)CCCCc1ccc(Cl)cc1`, the IC50 is 37.1 µM and the IC90 is 49.8 µM.

Consider `Cc1ccc(C(=O)C[n+]2cc(-c3ccc(C)cc3)n3c2CCCCC3)cc1`, for which the concentration for half-maximal inhibition (IC50) was 22.5 µM and the IC90 came out at 25.4 µM.

In the case of `CC(=O)Nc1ccc(S(=O)(=O)Nc2ccc(N3CCCCC3)cc2)cc1`, the IC50 was 12.4 µM and the IC90 came out at 15.9 µM.

In the case of `O=C(NCC(c1cccs1)N1CCOCC1)c1cc([N+](=O)[O-])cc([N+](=O)[O-])c1` (centres undefined), the IC50 was 0.81 µM and the 90% effect concentration (IC90) came out at 1.5 µM.

For `NC(N)=Nc1nc(-c2ccccc2)c2ccccc2n1`, the IC50 is 90.1 µM and the IC90 is greater than 100 µM.

For the compound `COc1ccc(SC[C@H](Cc2ccccc2)N2CCN(CCc3ccccc3)CCC2=O)cc1`, the half-inhibitory concentration (IC50) was 40.6 µM and the IC90 is 51.4 µM.

Regarding `COc1cc2nc(Nc3ccc(C)c(Cl)c3)nc(N)c2cc1OC`, the IC50 is 58.7 µM and the IC90 was determined as 66.8 µM.

As to `COC(=O)c1ccc2c(=O)[nH]c(CSc3nc(C)cs3)nc2c1`, the IC50 was 71.2 µM and the IC90 is greater than 100 µM.

Take `Cc1ccc(C(C)C)c(OCC(=O)OCc2c(C)noc2C)c1`: the IC50 is 4.65 µM and the IC90 was 6.88 µM.

Consider `c1ccc(-c2nc3nonc3nc2-c2ccccc2)cc1`, for which the IC50 is 28.9 µM and the IC90 was determined as 39.4 µM.

Take `CC[N+](C)(CC)CCCCOc1ccc2c(c1)C(=O)c1cc(OCCCC[N+](C)(CC)CC)ccc1-2`: the IC50 was 1.68 µM and the IC90 worked out at 2.11 µM.

As to `COc1ccc(OC)c(Nc2nc(-c3sc(C)nc3C)cs2)c1`, the IC50 was 70.1 µM and the IC90 is greater than 100 µM.

For the compound `Cn1nc([N+](=O)[O-])nc1Sc1ccc(C(C)(C)C)cc1`, the half-maximal inhibitory concentration (IC50) was 8.88 µM and the IC90 stood at 17.1 µM.

Turning to `CN(/N=C/c1cc(Br)cc(Br)c1O)c1cccc(C(F)(F)F)n1`, the IC50 was 7.9 µM and the IC90 amounted to 11.2 µM.

With `O=c1[nH]c(=O)n(Cc2ccccc2)c2nc(-c3ccc(Oc4ccc(F)cc4)c([N+](=O)[O-])c3)n(CCO)c12`, the IC50 was 50.5 µM and the IC90 was greater than 100 µM.

`CCOC(=O)c1cnc(-n2nc(C)cc2C)nc1NNc1cc(C)nc(-c2ccccc2)n1`: the IC50 is 74.6 µM and the IC90 was 93.7 µM.

`CC(C)(C)C1CCc2c(sc3nc(SCC(N)=O)nc(N)c23)C1` (centres undefined): the IC50 is 22.1 µM and the IC90 came to 33.5 µM.

For `Cc1ccc(C(=O)CC(SCC(=O)O)c2ccc([N+](=O)[O-])cc2)cc1` (centres undefined), the IC50 was 10.8 µM and the IC90 is 12.1 µM.

Take `COc1cc(C)c(/C=C/C(C)=C/C=C/C(C)=C/C(=O)O)c(C)c1C`: the IC50 was 24.7 µM and the IC90 was determined as 43.5 µM.

On to `CC12CCC(=O)N1C(C(=O)Nc1ccc(SC(F)F)cc1)CS2` (centres undefined), for which the IC50 is 47.8 µM and the IC90 is greater than 100 µM.

For `Oc1ccc(C[C@H]2CNCCN2CCCCC2CCCCC2)cc1`, the IC50 was 40 µM and the IC90 amounted to 55.3 µM.

As for `Cc1ccc(NC(=S)N(CCCN2CCCC2)Cc2cccn2Cc2ccc(Cl)cc2)cc1C`, the IC50 is 75.5 µM and the IC90 is greater than 100 µM.

By IC50 is commonly meant the point on the concentration scale where inhibition reaches its midpoint. Broadly, the IC90 is the concentration at which the effect reaches the 90% level. Low values mean greater potency, high ones weaker potency.
